Literature values as cited in publication PMC3530844 (ACS medicinal chemistry letters, 2012).

Key:
[1] = molecular target: hD2 receptors (Homo sapiens, UniProt P14416); conditions: [35S]GTPγS; ref Ghosh et al., J. Med. Chem. 2010, 53, 2114-2125
[2] = molecular target: hD3 receptors (Homo sapiens, UniProt P35462); conditions: [35S]GTPγS; ref Ghosh et al., J. Med. Chem. 2010, 53, 2114-2125
hD3 receptors, sequence (P35462 whole entry): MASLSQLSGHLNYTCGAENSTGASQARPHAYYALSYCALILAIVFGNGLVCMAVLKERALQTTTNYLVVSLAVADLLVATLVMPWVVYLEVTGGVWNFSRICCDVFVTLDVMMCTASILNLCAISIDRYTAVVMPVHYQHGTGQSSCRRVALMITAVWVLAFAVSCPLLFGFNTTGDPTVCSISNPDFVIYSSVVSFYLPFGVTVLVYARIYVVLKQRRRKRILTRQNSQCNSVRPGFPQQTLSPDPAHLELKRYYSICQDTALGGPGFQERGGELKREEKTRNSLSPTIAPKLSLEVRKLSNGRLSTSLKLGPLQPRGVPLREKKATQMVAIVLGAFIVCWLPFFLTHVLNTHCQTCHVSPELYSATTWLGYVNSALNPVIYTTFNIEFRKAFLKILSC

hD2 receptors, sequence (P14416 whole entry): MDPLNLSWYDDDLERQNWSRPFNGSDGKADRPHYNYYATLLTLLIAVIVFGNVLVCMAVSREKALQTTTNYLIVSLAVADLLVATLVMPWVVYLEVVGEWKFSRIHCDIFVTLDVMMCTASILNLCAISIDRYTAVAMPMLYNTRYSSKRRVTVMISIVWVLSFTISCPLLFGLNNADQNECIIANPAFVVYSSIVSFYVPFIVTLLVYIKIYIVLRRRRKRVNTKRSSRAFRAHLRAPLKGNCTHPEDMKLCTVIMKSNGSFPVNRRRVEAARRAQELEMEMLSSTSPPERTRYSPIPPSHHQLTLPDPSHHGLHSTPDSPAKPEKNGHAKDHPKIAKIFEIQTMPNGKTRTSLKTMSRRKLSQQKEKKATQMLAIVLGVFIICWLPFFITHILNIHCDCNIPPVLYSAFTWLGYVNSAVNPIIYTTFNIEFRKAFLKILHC

## CCCN(CCC)CCc1cccc2c1CC(=O)N2 [Ropinirole]
[1]
  %Emax hCHO-D2: 74 ± 0.9%
[2]
  %Emax hCHO-D3: 67 ± 8%
